Values of other authors, collected in patent US9072783B2, “Highly dispersible powders, compositions and methods for preparation” (Aridis Pharmaceuticals, priority 2009, dated 2015).

Conditions: of the amino acid itself (Table 3)

| Hydropathy Index | Compound |
| --- | --- |
| −3.5 | N[C@@H](CC(=O)O)C(=O)O [Aspartic Acid, aspartic acid] |
| −1.3 | N[C@@H](Cc1ccc(O)cc1)C(=O)O [Tyrosine, tyrosine] |
